The results in this text go back to US20190388425A1, “SUBSTITUTED IMIDAZOPYRIDINPYRIMIDINES” (Bayer Pharma Aktiengesellschaft, priority 2017, published 2019).

Bounds are passed on as bounds.

In this assay the target is T1, human full-length MKNK1 (Homo sapiens, UniProt Q9BUB5, T385D).
T1 construct: GST (N); purchased Carna Biosciences 02-145; host or cells: insect cells (baculovirus expression system)
T1 sequence (Q9BUB5 1-424 isoform Q9BUB5-2 T344D): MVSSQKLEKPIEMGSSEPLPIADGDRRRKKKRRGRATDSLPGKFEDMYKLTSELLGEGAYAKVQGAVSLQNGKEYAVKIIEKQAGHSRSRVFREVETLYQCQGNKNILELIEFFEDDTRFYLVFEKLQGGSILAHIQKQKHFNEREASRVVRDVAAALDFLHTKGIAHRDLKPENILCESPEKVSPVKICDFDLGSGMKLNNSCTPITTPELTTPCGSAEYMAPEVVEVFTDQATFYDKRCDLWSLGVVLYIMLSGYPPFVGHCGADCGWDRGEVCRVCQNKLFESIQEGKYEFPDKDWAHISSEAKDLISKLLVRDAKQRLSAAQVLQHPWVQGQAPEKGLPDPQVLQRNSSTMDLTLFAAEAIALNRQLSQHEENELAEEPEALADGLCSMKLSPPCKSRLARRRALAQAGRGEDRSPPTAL
Put plainly: MKNK1 kinase high ATP assay (TR-FRET). The class given is biochemical. As to conditions: TR-FRET, 2 mM ATP (high ATP), 15 min preincubation with enzyme, 30 min reaction at 22° C.; read-out: MKNK1 IC50. The procedure, abridged:
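Full-length human MKNK1 (T385D) preincubated 15 min at 22 °C with compound in HEPES pH 7.5/MgCl2/DTT buffer; reaction with 2 mM ATP (final) and 0.06 μM biotinylated peptide (final), 30 min at 22 °C.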
Regarding `Cc1cc(Nc2ncnc3sc4c(c23)CC[C@H](C(=O)O)C4)c(=O)n2c1C(=O)NC21CCCCC1` [Example 1, (7S)-4-[(8′-Methyl-1′,5′-dioxo-1′,5′-dihydro-2′H-spiro[cyclohexane-1,3′-imidazo[1,5-a]pyridin]-6′-yl)amino]-5,6,7,8-tetrahydro[1]benzothieno[2,3-d]pyrimidine-7-carboxylic acid], the IC50 was 9 nM. With `CC1(C)NC(=O)c2c(Cl)cc(Nc3ncnc4sc5c(c34)CC[C@H](C(=O)N3C[C@H]4C[C@@H]3CO4)C5)c(=O)n21` [Example 116, 8-Chloro-3,3-dimethyl-6-({(7S)-7-[(1R,4R)-2-oxa-5-azabicyclo[2.2.1]heptane-5-carbonyl]-5,6,7,8-tetrahydro[1]benzothieno[2,3-d]pyrimidin-4-yl}amino)-2,3-dihydroimidazo[1,5-a]pyridine-1,5-dione] the figure was 0.3 nM; with `Cc1cc(Nc2ncnc3sc4c(c23)CC[C@H](C(=O)N2CCN(C)[C@H](C)C2)C4)c(=O)n2c1C(=O)NC21CS(=O)(=O)C1` [Example 71, 6-{[(7S)-7-{[(3R)-3,4-Dimethylpiperazin-1-yl]carbonyl}-5,6,7,8-tetrahydro[1]benzothieno[2,3-d]pyrimidin-4-yl]amino}-8-methyl-2H-spiro[imidazo[1,5-a]pyridine-3,3′-thietane]-1,5-dione 1′,1′-dioxide], 0.8 nM. To `CN(C)[C@H]1CCN(C(=O)[C@H]2CCc3c(sc4ncnc(Nc5cc(Cl)c6n(c5=O)C5(CCC5)NC6=O)c34)C2)C1` [Example 98, 8′-Chloro-6′-({(7S)-7-[(3S)-3-(dimethylamino)pyrrolidine-1-carbonyl]-5,6,7,8-tetrahydro[1]benzothieno[2,3-d]pyrimidin-4-yl}amino)-2′H-spiro[cyclobutane-1,3′-imidazo[1,5-a]pyridine]-1′,5′-dione] belongs below 0.1 nM; to `Cc1cc(Nc2ncnc3sc4c(c23)CC[C@H](C(=O)N2CCC2)C4)c(=O)n2c1C(=O)NC21CCC(F)(F)CC1` [Example 53, 6′-{[(7S)-7-(Azetidin-1-ylcarbonyl)-5,6,7,8-tetrahydro[1]benzothieno[2,3-d]pyrimidin-4-yl]amino}-4,4-difluoro-8′-methyl-2′H-spiro[cyclohexane-1,3′-imidazo[1,5-a]pyridine]-1′,5′-dione], 13.5 nM. With `Cc1cc(Nc2ncnc3sc4c(c23)CC[C@H](C(=O)N2CC(N(C)C)C2)C4)c(=O)n2c1C(=O)NC2(C)C` [Example 30, 6-{[(7S)-7-{[3-(Dimethylamino)azetidin-1-yl]carbonyl}-5,6,7,8-tetrahydro[1]benzothieno[2,3-d]pyrimidin-4-yl]amino}-3,3,8-trimethyl-2,3-dihydroimidazo[1,5-a]pyridine-1,5-dione], the IC50 turned out to be 1.3 nM. To `Cc1cc(Nc2ncnc3sc4c(c23)CC[C@H](C(=O)N2CC[C@H](N(C)C)C2)C4)c(=O)n2c1C(=O)NC21CS(=O)(=O)C1` [Example 70, 6-{[(7S)-7-{[(3S)-3-(Dimethylamino)pyrrolidin-1-yl]carbonyl}-5,6,7,8-tetrahydro[1]benzothieno[2,3-d]pyrimidin-4-yl]amino}-8-methyl-2H-spiro[imidazo[1,5-a]pyridine-3,3′-thietane]-1,5-dione 1′,1′-dioxide] belongs 0.8 nM; to `O=C1NC2(CCCCC2)n2c1c(Cl)cc(Nc1ncnc3sc4c(c13)CC[C@H](C(=O)N1C[C@H]3C[C@@H]1CO3)C4)c2=O` [Example 81, 8′-Chloro-6′-({(7S)-7-[(1R,4R)-2-oxa-5-azabicyclo[2.2.1]hept-5-ylcarbonyl]-5,6,7,8-tetrahydro[1]benzothieno[2,3-d]pyrimidin-4-yl}amino)-2′H-spiro[cyclohexane-1,3′-imidazo[1,5-a]pyridine]-1′,5′-dione], 0.3 nM.

Broadly, the IC50 is the midpoint of a concentration-inhibition curve.
